Data on one compound can be found in patent publication US20070249561A1, “Pharmacological method for treatment of neuropathic pain” (priority 2006, published 2007).

Data set [1] deals with spared nerve injury (SNI) model of neuropathic pain in mice. The data set is described as follows: Cold allodynia (acetone drop, paw withdrawal duration) in SNI mice. The class given is in vivo, mouse. To be noted: intrathecal. As to the method:
(§1) Male CD1 mice (Charles Rivers Laboratories, Inc) were used, and weighed 18-22 g at the time of surgery, and 29-32 g during pharmacological testing. To produce the SNI model in mice, surgical procedures essentially identical to those used in rat were used. Unlike the rat SNI model, where an indwelling catheter was inserted surgically, vehicle or drugs were injected directly into the intrathecal space of the unanesthetized mouse using the classical method of Hylden and Wilcox (“Intrathecal morphine in mice: a new technique” Eur. J. Pharmacol. 17:313-6, 1980) to administer drugs to the intrathecal space dorsal to but not within the spinal cord. Briefly, a piece of cloth was used to restrain the mouse by cradling the iliac crest between one's thumb and forefinger. The L5-L6 spinal bones were located, and a 0.5 inch 30G hypodermic needle was inserted perpendicularly into the L4-L5 interspinous space. Upon insertion, the needle was angled about 30°-45° from the coronal (frontal) plane, and then advanced slightly. The needle angle was then adjusted gently, until paw or tail movement was evoked, whereupon the needle was held in position and 5 μL of saline or drug was administered via a 25 μL Hamilton syringe.
(§2) Data are presented as mean±standard error of the mean (SEM). Differences between means were analyzed by two-way repeated-measures analysis of variance (ANOVA), with drug treatment as the between-subjects variable and time as the repeated measure. If statistically significant differences (p<0.05) were detected, the analyses were followed by post hoc t-tests.
(§3) The procedures used to evaluate behavioral signs of mechanical and cold allodynia were essentially the same for rats as they were for mice. Animals were acclimated to a stainless steel grid within individual Plexiglas boxes for 30-60 minutes, and then tested for mechanical allodynia and cold allodynia. In all animals, mechanical allodynia was assessed using von Frey (VF) filaments (Stoelting, Inc), and was done before assessing cold allodynia.
Cold allodynia was evaluated by applying a drop of acetone to the plantar paw of control and SNI rats. Acetone was applied via a syringe connected to PE-90 tubing, flared at the tip to a diameter of 3.5 mm. Surface tension maintained the volume of the drop to 10-12 μL. The length of time the animal lifted or shook its paw was recorded. The duration of paw withdrawal was recorded for 30 seconds, and three observations were averaged. […] In such cases acetone testing was either terminated, or that data was not included in the final analysis.

The conditions of data set [2]: Heneka et al. 2005; Maeshiba et al. 1997; cited from earlier work.
Data set [3] relates to spared nerve injury (SNI) model of neuropathic pain in mice. The data set is described as follows: Mechanical threshold (von Frey) to hindpaw withdrawal in SNI mice. It counts as in vivo, mouse. To be noted: intrathecal. The protocol: as §1, §2, §3
To assess mechanical allodynia, the plantar region of each hind paw was stimulated with an incremental series of 8 different VF hairs (monofilaments of logarithmically varying stiffness). In SNI rats and mice, the stimulus region was localized to the sural innervation territory of the lateral aspect of the plantar hind paw. The 50% withdrawal threshold (“mechanical” threshold) was determined using the up-down method of Dixon, modified by Chaplan et al. (Chaplan et al., 1994). First, an intermediate von Frey monofilament (e.g., for rats, number 4.31 was used, which exerts a force of 2.0 g) was applied perpendicular to the plantar skin, causing a slight bending of the hair. […]

With `CCc1ccc(CCOc2ccc(CC3SC(=O)NC3=O)cc2)nc1` (stereo not drawn) [pioglitazone, 5-[[4-[2-(5-ethylpyridin-2-yl)ethoxy]phenyl]methyl]thiazolidine-2,4-dione], in data set [1], the “onset of analgesic effects after injection (cold allodynia)” value is ≤ 30 min, the “time of most pronounced analgesic effects (cold allodynia)” value is recorded as “approximately 60 minutes” and the “time within which analgesic effects began to dissipate (cold allodynia)” value is ≤ 90 min. Further, the “effect on cold hypersensitivity (paw withdrawal duration after acetone)” value in data set [1] (dose series) was “decreased cold hypersensitivity in a dose-dependent and reversible manner”. Also, the “ability to cross the blood brain barrier” value in data set [2] is on record as “can cross the blood brain barrier”. Further, in data set [3] (150 μg dose), the “onset of anti-allodynic effect after injection (mechanical threshold)” value was ≤ 30 min, the “time after which anti-allodynic effect dissipated (mechanical threshold)” value stood at 90 min and the “time of peak anti-allodynic effect after injection (mechanical threshold)” value is 30 min. Moreover, the “effect on behavioral signs of neuropathic pain (threshold to hindpaw withdrawal, von Frey)” value in data set [3] (dose series) was “reduced behavioral signs of neuropathic pain in a dose-dependent and reversible manner”.
